Measured values taken from patent US10188625B2, “Combination of a retinoid and a diol and polyunsaturated fatty acid ester” (PIERRE FABRE DERMO-COSMETIQUE, priority 2015, dated 2019).

Tests used:
[1] = tested on: retentional lesions (open and closed comedones); assay: Clinical study (open) of creams: count of retentional lesions in subjects with mild to moderate acne; assay type: in vivo, human; details: topical cream (retinaldehyde 0.1% and/or Compound A 0.6%)
Source text: The clinical trial was an open study involving 60 subjects (men and women) between 12 and 35 years of age with mild to moderate acne for purposes of testing the tolerance and efficacy of Composition 2.
All of the participants initially had more than 10 retentional lesions (open and closed comedones) on their skin (excluding the nasal pyramid).
The cream was applied to the face (clean skin) in the evening by means of gentle massage.
The lesions were counted at T0 (before the first treatment), T3 weeks and T6 weeks according to the method described by Lucky (Lucky AW et al. (1996)).
The clinical trial was an open study involving 29 subjects (men and women) between 12 and 35 years of age with mild to moderate acne for purposes of testing the tolerance and efficacy of cream having the following composition:
All of the participants initially had more than 10 retentional lesions (open and closed comedones) on their skin.
The lesions were counted at T0, T3 weeks and T6 weeks.
The clinical trial was an open study involving 46 subjects (men and women) between 12 and 35 years of age with mild to moderate acne for purposes of testing the tolerance and efficacy of cream having the following composition:
The cream was applied to the face (clean skin) twice per day (morning and evening) by means of gentle massage.

[2] = tested on: genes responsible for differentiation in keratinocytes (human skin explants); assay: Microarray analysis of differentiation genes in human skin explants treated topically with retinaldehyde; assay type: cell-based
Procedure: In these experiments, retinaldehyde was applied topically for 24 hours at a concentration of 0.025% dissolved in Myritol on human skin explants (of 3 donors) kept alive in culture medium (Dulbecco's Modified Eagle Medium (DMEM)+10% fetal bovine serum (FBS)). Myritol alone was used as the control. At the conclusion of this treatment, the RNA is extracted, inspected for quality, and analyzed by means of a microarray (Agilent Technology). They are averaged fold-change values below 1.8 (p<0.05). A fold change of −2.00 corresponds to a decrease in gene expression of about 50%.

[3] = tested on: keratinocyte proliferation; assay: Keratinocyte proliferation; assay type: cell-based
[4] = tested on: genes responsible for differentiation in keratinocytes (human skin explants); assay: Microarray analysis of differentiation genes in human skin explants treated topically with retinaldehyde; assay type: cell-based; details: 0.025% in Myritol, topical 24 hours
[5] = human skin explants (3 donors), control Myritol alone, p 0.115

Question: Which “Change in mean number of retentional lesions” value (from here on “Change in mean number”) ([1]; T = 3 weeks) does the source give for `CC/C=C\C/C=C\C/C=C\CCCCCCCC(=O)OCC(O)CCCCCC` (centres unmarked) [Compound A] here?
Answer: The value was −6%.

Question: And the “Change in mean number” value ([1]; T = 6 weeks)?
Answer: The value was −19%.

Question: For `CC1=C(/C=C/C(C)=C/C=C/C(C)=C/C=O)C(C)(C)CCC1` [Retinaldehyde, retinaldehyde], which “Change in mean number” value ([1]; T = 3 weeks) is on record?
Answer: Its value is −23%.

Question: What about the “Change in mean number” value ([1]; T = 6 weeks) of the same compound?
Answer: Its value is −37%.

Question: And the “Fold change, KRTCAP3 (keratinocyte associated protein 3)” value ([2]; 0.025% in Myritol, topical 24 hours, human skin explants (3 donors), control Myritol alone, p 0.009)?
Answer: The value was −1.81.

Question: What about the “Fold change, KRT6A (keratin 6A)” value ([2]; 0.025% in Myritol, topical 24 hours, human skin explants (3 donors), control Myritol alone, p 0.012) of the same compound?
Answer: The value was −2.83.

Question: And the “Fold change, KRT6C (keratin 6C)” value ([2]; 0.025% in Myritol, topical 24 hours, human skin explants (3 donors), control Myritol alone, p 0.015)?
Answer: The value was −3.61.

Question: What about the “Fold change, FLJ46111 (keratin 8 pseudogene)” value ([2]; 0.025% in Myritol, topical 24 hours, human skin explants (3 donors), control Myritol alone, p 0.016) of the same compound?
Answer: The value was −2.71.

Question: And the “Fold change, EPPK1 (epiplakin 1)” value ([2]; 0.025% in Myritol, topical 24 hours, human skin explants (3 donors), control Myritol alone, p 0.042)?
Answer: The value was −1.60.

Question: And the “effect on keratinocyte differentiation” value ([2]; conclusion from gene modulation in human skin explants)?
Answer: The value was “inhibits keratinocyte differentiation”.

Question: What about the “effect on cell (keratinocyte) proliferation” value [3] of the same compound?
Answer: The value was “does not increase cell proliferation”.

Question: What about the “number of keratins inhibited” value ([4]; human skin explants) of the same compound?
Answer: The value was 11.

Question: What about the “number of targets of terminal keratinocyte differentiation inhibited” value ([4]; human skin explants) of the same compound?
Answer: The value was 13.

Question: What about the “Fold change, CNFN (cornifelin)” value ([4]; human skin explants (3 donors), control Myritol alone, p 0.004) of the same compound?
Answer: Its value is −1.56.

Question: And the “Fold change, KRT16 (keratin 16)” value ([4]; human skin explants (3 donors), control Myritol alone, p 0.027)?
Answer: The value was −2.63.

Question: What about the “Fold change, CDSN (corneodesmosin)” value ([4]; human skin explants (3 donors), control Myritol alone, p 0.052) of the same compound?
Answer: The value was −1.49.

Question: What about the “Fold change, DSG3 (desmoglein 3)” value ([4]; human skin explants (3 donors), control Myritol alone, p 0.056) of the same compound?
Answer: The value was −1.77.

Question: What about the “Fold change, DSC1 (desmocollin 1)” value ([4]; human skin explants (3 donors), control Myritol alone, p 0.058) of the same compound?
Answer: Its value is −1.70.

Question: What about the “Fold change, DSG1 (desmoglein 1)” value ([4]; human skin explants (3 donors), control Myritol alone, p 0.070) of the same compound?
Answer: Its value is −1.68.

Question: What about the “Fold change, EVPL (envoplakin)” value ([4]; human skin explants (3 donors), control Myritol alone, p 0.072) of the same compound?
Answer: Its value is −1.41.

Question: And the “Fold change, UPK2 (uroplakin 2)” value ([4]; human skin explants (3 donors), control Myritol alone, p 0.091)?
Answer: Its value is −1.53.

Question: What about the “Fold change, DSC3 (desmocollin 3)” value ([4]; human skin explants (3 donors), control Myritol alone, p 0.095) of the same compound?
Answer: The value was −1.55.

Question: What about the “Fold change, KRTAP11-1 (keratin associated protein 11-1)” value [4, 5] of the same compound?
Answer: The value was −4.68.

Question: And the “Fold change, LCE3A (late cornified envelope 3A)” value [4, 5]?
Answer: The value was −2.73.

Question: And the “Fold change, LCE3D (late cornified envelope 3D)” value ([4]; human skin explants (3 donors), control Myritol alone, p 0.271)?
Answer: The value was −1.90.

Question: And the “Fold change, KRTAP3-1 (keratin associated protein 3-1)” value ([4]; human skin explants (3 donors), control Myritol alone, p 0.288)?
Answer: Its value is −2.09.

Question: And the “Fold change, KRT6B (keratin 6B)” value ([4]; human skin explants (3 donors), control Myritol alone, p 0.325)?
Answer: The value was −1.83.

Question: And the “Fold change, KRT27 (keratin 27)” value ([4]; human skin explants (3 donors), control Myritol alone, p 0.372)?
Answer: Its value is −2.66.

Question: And the “Fold change, KRT86 (keratin 86)” value ([4]; human skin explants (3 donors), control Myritol alone, p 0.472)?
Answer: The value was −2.19.
